One may read the IC50 as the concentration that inhibits the measured activity by half.

Where only a bound is given, the exact number is not on record here.

Among the data in US7714135B2, “Tetrahydropyridothiophenes for the treatment of proliferative diseases such as cancer” (4SC AG, priority 2005, dated 2010) are IC50 values, retold here.

Experiment [1] deals with RKO (RKOp27) human colon adenocarcinoma cells. The experiment is described as follows: Alamar Blue cell viability assay, anti-proliferative/cytotoxic activity on proliferating (uninduced) RKOp27 cells. In kind it is cell-based. The settings on record: RKOp27 subclone without inducer, 72 hours incubation, read-out: IC50 RKO p27 uninduced (proliferating). The method, then:
The anti-proliferative/cytotoxic activity of the compounds described herein, can be tested on subclones of RKO (RKOp27) human colon adenocarcinoma cells (Schmidt et al., Oncogene 19, 2423-2429; 2000) using the Alamar Blue cell viability assay (described in O'Brien et al. Eur J Biochem 267, 5421-5426, 2000). The compounds are dissolved as 20 mM solutions in dimethylsulfoxide (DMSO) and subsequently diluted in semi-logarithmic steps. DMSO dilutions are further diluted 1:100 into Dulbecco's modified Eagle's medium (DMEM) containing 10% fetal calf serum to a final concentration twice as much as the final concentration in the test. RKO subclones are seeded into 96 well flat bottom plates at a density of 4000 cells per well in a volume of 50 μl per well. 24 hours after seeding the 50 μl each of the compound dilutions in DMEM medium are added into each well of the 96 Well plate. Each compound dilution is tested as quadruplicates. Wells containing untreated control cells are filled with 50 μl DMEM medium containing 1% DMSO. The cells are then incubated with the substances for 72 hours at 37° C. in a humidified atmosphere containing 5% carbon dioxide. To determine the viability of the cells, 10 μl of an Alamar Blue solution (Biosource) are added and the fluorescence is measured at an extinction of 544 nm and an emission of 590 nm. For the calculation of the cell viability the emission value from untreated cells is set as 100% viability and the emission rates of treated cells are set in relation to the values of untreated cells. Viabilities are expressed as % values.
The corresponding IC50 values of the compounds for anti-proliferative/cytotoxic activity are determined from the concentration-effect curves.
Representative IC50 values for anti-proliferation/cytotoxicity determined in the mentioned assay follow from the following table A, in which the numbers of the compound correspond to the numbers of the examples.
(The colour change of resazurin is a common sign of viable cells or microbes.)

The subject of experiment [2] is RKO colon adenocarcinoma cells (RKOp27) arrested by the expression of ectopic p27Kip1. As to the kind of experiment: Alamar Blue cell viability assay on RKOp27 cells arrested by Ponasterone A-induced p27Kip1 expression (cell cycle specific mode of action). In kind it is cell-based. The settings on record: Homo sapiens, RKOp27 subclone induced with 10 μM Ponasterone A, 72 hours incubation, read-out: IC50 RKO p27 induced (arrested). As to the method: To determine the cell cycle specific mode of action, subclones of RKO colon adenocarcinoma cells (RKOp27 or RKOp21 as described by Schmidt et al. in Oncogene 19, 2423-2429; 2000) are seeded into 96 well flat bottom plates at a density of 16000 cells per well in a volume of 50 μl per well in DMEM growth medium with 10% FCS containing 10 μM Ponasterone A. 24 hours after seeding the 50 μl each of the compound dilutions in DMEM medium are added into each well of the 96 Well plate. Each compound dilution is tested as quadruplicates. Wells containing untreated control cells are filled with 50 μl DMEM medium containing 1% DMSO. The cells are then incubated with the substances for 72 hours at 37° C. in a humidified atmosphere containing 5% carbon dioxide. To determine the viability of the cells, 10 μl of an Alamar Blue solution (Biosource) are added and the fluorescence was measured at an extinction of 544 nm and an emission of 590 nm. For the calculation of the cell viability the emission value from untreated cells is set as 100% viability and the emission rates of treated cells are set in relation to the values of untreated cells. Viabilities are expressed as % values. Viability is compared of proliferating cells grown in the absence of the inducer Ponasterone A, versus viability of cells arrested by the expression of ectopic p27Kip1 induced by Ponasterone A.

Turning to `CCOC(=O)N1CCc2c(sc(NC(=O)CC(C)(C)c3ccccc3)c2C#N)C1` [Example 47, 3-Cyano-2-(3-methyl-3-phenyl-butanoylamino)-4,7-dihydro-5H-thieno[2,3-c]pyridine-6-carboxylic acid ethyl ester], the IC50 in experiment [1] is no more than 300 nM; in experiment [2] it was greater than 100000 nM.

For the compound `CCOC(=O)N1CCc2c(sc(NC(=O)C3CC3c3ccccc3)c2C#N)C1` (centres unmarked) [Example 2, 3-Cyano-2-{[1-(2-phenyl-cyclopropyl)-methanoyl]-amino}-4,7-dihydro-5H-thieno[2,3-c]pyridine-6-carboxylic acid ethyl ester], the IC50 was no more than 300 nM in experiment [1] and greater than 100000 nM in experiment [2].

Turning to `N#Cc1c(NC(=O)CCc2ccco2)sc2c1CCN(C(=O)OCCN1CCOCC1)C2` [Example 51, 3-Cyano-2-(3-furan-2-yl-propanoylamino)-4,7-dihydro-5H-thieno[2,3-c]pyridine-6-carboxylic acid 2-morpholin-4-yl-ethyl ester], the IC50 was no more than 300 nM in experiment [1] and greater than 100000 nM in experiment [2].

On to `N#Cc1c(NC(=O)CCc2cccnc2)sc2c1CCN(C(=O)OCc1ccncc1)C2` [Example 40, 3-Cyano-2-(3-pyridin-3-yl-propanoylamino)-4,7-dihydro-5H-thieno[2,3-c]pyridine-6-carboxylic acid pyridin-4-ylmethyl ester], for which the figures for the IC50 in experiment [1] and in experiment [2] were 300 to 2000 nM and no less than 40000 nM, respectively.

`N#Cc1c(NC(=O)CCc2ccco2)sc2c1CCN(C(=O)OCCc1ccccn1)C2` [Example 45, 3-Cyano-2-(3-furan-2-yl-propanoylamino)-4,7-dihydro-5H-thieno[2,3-c]pyridine-6-carboxylic acid 2-pyridin-2-yl-ethyl ester]: the IC50 in experiment [1] is no more than 300 nM; in experiment [2], greater than 100000 nM.

For the compound `N#Cc1c(NC(=O)CCc2ccco2)sc2c1CCN(C(=O)OCc1ccncc1)C2` [Example 44, 3-Cyano-2-(3-furan-2-yl-propanoylamino)-4,7-dihydro-5H-thieno[2,3-c]pyridine-6-carboxylic acid pyridin-4-ylmethyl ester], the IC50 is no more than 300 nM in experiment [1] and greater than 100000 nM in experiment [2].

As for `CCOC(=O)N1CCc2c(sc(NC(=O)CCC3CCCCC3)c2C#N)C1` [Example 19, 3-Cyano-2-(3-cyclohexyl-propanoylamino)-4,7-dihydro-5H-thieno[2,3-c]pyridine-6-carboxylic acid ethyl ester], the IC50 was 300 to 2000 nM in experiment [1] and greater than 100000 nM in experiment [2].

`N#Cc1c(NC(=O)CCc2ccco2)sc2c1CCN(C(=O)OCc1cccnc1)C2` [Example 43, 3-Cyano-2-(3-furan-2-yl-propanoylamino)-4,7-dihydro-5H-thieno[2,3-c]pyridine-6-carboxylic acid pyridin-3-ylmethyl ester]: the values for the IC50 in experiment [1] and in experiment [2] were no more than 300 nM and greater than 100000 nM, respectively.

For `N#Cc1c(NC(=O)CCc2ccccc2)sc2c1CCN(C(=O)OCc1ccccn1)C2` [Example 27, 3-Cyano-2-(3-phenyl-propanoylamino)-4,7-dihydro-5H-thieno[2,3-c]pyridine-6-carboxylic acid pyridin-2-ylmethyl ester], the IC50 is no more than 300 nM in experiment [1] and greater than 100000 nM in experiment [2].

Turning to `CC(C)(C)OC(=O)N1CCc2c(sc(NC(=O)CCc3cccnc3)c2C#N)C1` [Example 15, 3-Cyano-2-(3-pyridin-3-yl-propanoylamino)-4,7-dihydro-5H-thieno[2,3-c]pyridine-6-carboxylic acid tert-butyl ester], the 50% inhibitory concentration (IC50) in experiment [1] was no more than 300 nM; in experiment [2], greater than 100000 nM.

For `CCOC(=O)N1CCc2c(sc(NC(=O)CCc3cccs3)c2C#N)C1` [Example 7, 3-Cyano-2-(3-thiophen-2-yl-propanoylamino)-4,7-dihydro-5H-thieno[2,3-c]pyridine-6-carboxylic acid ethyl ester], the IC50 in experiment [1] was no more than 300 nM; in experiment [2] it was greater than 100000 nM.

For `CCOC(=O)N1CCc2c(sc(NC(=O)CCc3ccccc3Br)c2C#N)C1` [Example 23, 2-[3-(2-Bromo-phenyl)-propanoylamino]-3-cyano-4,7-dihydro-5H-thieno[2,3-c]pyridine-6-carboxylic acid ethyl ester], the IC50 was no more than 300 nM in experiment [1] and greater than 100000 nM in experiment [2].

On to `CCOC(=O)N1CCc2c(sc(NC(=O)CCc3ccc(F)cc3)c2C#N)C1` [Example 8, 3-Cyano-2-(3-(4-fluoro-phenyl)-propanoylamino)-4,7-dihydro-5H-thieno[2,3-c]pyridine-6-carboxylic acid ethyl ester], for which the IC50 in experiment [1] was no more than 300 nM; in experiment [2], greater than 100000 nM.

Regarding `COCCOC(=O)N1CCc2c(sc(NC(=O)CCc3ccco3)c2C#N)C1` [Example 41, 3-Cyano-2-(3-furan-2-yl-propanoylamino)-4,7-dihydro-5H-thieno[2,3-c]pyridine-6-carboxylic acid 2-methoxy-ethyl ester], the figures for the IC50 in experiment [1] and in experiment [2] were no more than 300 nM and greater than 100000 nM, respectively.

Regarding `CCOC(=O)N1CCc2c(sc(NC(=O)CCc3ccccc3Cl)c2C#N)C1` [Example 13, 2-[3-(2-Chloro-phenyl)-propanoylamino]-3-cyano-4,7-dihydro-5H-thieno[2,3-c]pyridine-6-carboxylic acid ethyl ester], the results for the IC50 in experiment [1] and in experiment [2] were no more than 300 nM and greater than 100000 nM, respectively.

Regarding `CC1(C)OCC(COC(=O)N2CCc3c(sc(NC(=O)CCc4ccccc4)c3C#N)C2)O1` (centres unmarked) [Example 30, 3-Cyano-2-(3-phenyl-propanoylamino)-4,7-dihydro-5H-thieno[2,3-c]pyridine-6-carboxylic acid 2,2-dimethyl-[1,3]dioxolan-4-ylmethyl ester], the concentration for half-maximal inhibition (IC50) in experiment [1] was no more than 300 nM; in experiment [2], greater than 100000 nM.

Turning to `CCOC(=O)N1CCc2c(sc(NC(=O)C3CC3c3ccco3)c2C#N)C1` (centres unmarked) [Example 48, 3-Cyano-2-{[1-(2-furan-2-yl-cyclopropyl)-methanoyl]-amino}-4,7-dihydro-5H-thieno[2,3-c]pyridine-6-carboxylic acid ethyl ester], the IC50 is no more than 300 nM in experiment [1] and greater than 100000 nM in experiment [2].

Turning to `N#Cc1c(NC(=O)CCc2ccccc2)sc2c1CCN(C(=O)OCCN1CCOCC1)C2` [Example 50, 3-Cyano-2-(3-phenyl-propanoylamino)-4,7-dihydro-5H-thieno[2,3-c]pyridine-6-carboxylic acid 2-morpholin-4-yl-ethyl ester], the IC50 was no more than 300 nM in experiment [1] and greater than 100000 nM in experiment [2].

Regarding `CCOC(=O)N1CCc2c(sc(NC(=O)CCc3cccc(Cl)c3)c2C#N)C1` [Example 16, 2-[3-(3-Chloro-phenyl)-propanoylamino]-3-cyano-4,7-dihydro-5H-thieno[2,3-c]pyridine-6-carboxylic acid ethyl ester], the 50% inhibitory concentration (IC50) in experiment [1] is no more than 300 nM; in experiment [2], greater than 100000 nM.

In the case of `CCOC(=O)N1CCc2c(sc(NC(=O)CCc3ccccc3F)c2C#N)C1` [Example 10, 3-Cyano-2-(3-(2-fluoro-phenyl)-propanoylamino)-4,7-dihydro-5H-thieno[2,3-c]pyridine-6-carboxylic acid ethyl ester], the IC50 in experiment [1] was no more than 300 nM; in experiment [2] it was greater than 100000 nM.

With `N#Cc1c(NC(=O)CCc2cccnc2)sc2c1CCN(C(=O)OCc1ccccn1)C2` [Example 38, 3-Cyano-2-(3-pyridin-3-yl-propanoylamino)-4,7-dihydro-5H-thieno[2,3-c]pyridine-6-carboxylic acid pyridin-2-ylmethyl ester], the IC50 in experiment [1] is 300 to 2000 nM; in experiment [2] it was greater than 100000 nM.

Regarding `N#Cc1c(NC(=O)CCc2ccccc2)sc2c1CCN(C(=O)OCCc1ccccn1)C2` [Example 26, 3-Cyano-2-(3-phenyl-propanoylamino)-4,7-dihydro-5H-thieno[2,3-c]pyridine-6-carboxylic acid 2-pyridin-2-yl-ethyl ester], the IC50 is no more than 300 nM in experiment [1] and greater than 100000 nM in experiment [2].
